Organism: Rattus norvegicus
Assay: Open TG-GATES - Regimen: Daily Repeat
Type: toxicity, organism-based, Sprague-Dawley
Parameters: regimen Daily Repeat, gender Male, age 6 weeks
Details: in vivo, po, 0 mg/kg, route gavage, dose level Control; for APTT / Bas / Eos / Fbg / Hb / Ht / Lym / MCH / MCHC / MCV / Mono / Neu / PT / Plat / RBC / Ret / WBC: tissue Blood; for KIDNEY_L / KIDNEY_R / KIDNEY_TOTAL: tissue Kidney; for LIVER: tissue Liver; for A/G / ALP / ALT / AST / BUN / CRE / Ca / Cl / DBIL / GLC / IP / K / LDH / Na / PL / RALB / TBIL / TC / TG / TP / gamma-GTP: tissue Plasma

## CNC(=C[N+](=O)[O-])NCCSCc1ccc(CN(C)C)o1 [RANITIDINE]
72 h, time 3 day
  TERMINAL_BW: 234.4 g
  APTT: 18.8 s
  Bas: 0%
  Eos: 1%
  Fbg: 243.4 mg/dL
  Hb: 13.9 g/dL
  Ht: 40.4%
  Lym: 79.8%
  MCH: 22.1 pg
  MCHC: 34.4%
  MCV: 64.2 fL
  Mono: 2.6%
  Neu: 15.2%
  PT: 11.9 s
  Plat: 112 x10_4/uL
  RBC: 629.4 x10_4/ul
  Ret: 5.1%
  WBC: 95.3 x10_2/uL
  KIDNEY_L: 1.1 g
  KIDNEY_R: 1.1 g
  KIDNEY_TOTAL: 2.2 g
  LIVER: 11.5 g
  A/G: 1.6
  ALP: 924 IU/L
  ALT: 35.2 IU/L
  AST: 66.6 IU/L
  BUN: 16.6 mg/dL
  CRE: 0.4 mg/dL
  Ca: 10.9 mg/dL
  Cl: 103.8 meq/L
  DBIL: 0.1 mg/dL
  GLC: 198.8 mg/dL
  IP: 7.4 mg/dL
  K: 4.2 meq/L
  LDH: 178.4 IU/L
  Na: 140.4 meq/L
  PL: 169.6 mg/dL
  RALB: 3.5 g/dL
  TBIL: 0.2 mg/dL
  TC: 92.4 mg/dL
  TG: 92.4 mg/dL
  TP: 5.7 g/dL
  gamma-GTP: 1.2 IU/L
[…], time 7 day
  TERMINAL_BW: 265.4 g
  APTT: 19.3 s
  Bas: 0%
  Eos: 1.2%
  Fbg: 225.8 mg/dL
  Hb: 13.9 g/dL
  Ht: 39.4%
  Lym: 76.6%
  MCH: 21.8 pg
  MCHC: 35.3%
  MCV: 61.7 fL
  Mono: 2.4%
  Neu: 18.4%
  PT: 12.1 s
  Plat: 120.4 x10_4/uL
  RBC: 639 x10_4/ul
  Ret: 4.9%
  WBC: 90.8 x10_2/uL
  KIDNEY_L: 1.1 g
  KIDNEY_R: 1.1 g
  KIDNEY_TOTAL: 2.2 g
  LIVER: 12.5 g
  A/G: 1.5
  ALP: 967.8 IU/L
  ALT: 31.6 IU/L
  AST: 63.8 IU/L
  BUN: 15.4 mg/dL
  CRE: 0.4 mg/dL
  Ca: 10.6 mg/dL
  Cl: 103.8 meq/L
  DBIL: 0.096 mg/dL
  GLC: 219.2 mg/dL
  IP: 7.4 mg/dL
  K: 3.8 meq/L
  LDH: 164.8 IU/L
  Na: 140.8 meq/L
  PL: 147.4 mg/dL
  RALB: 3.4 g/dL
  TBIL: 0.1 mg/dL
  TC: 73.2 mg/dL
  TG: 103.6 mg/dL
  TP: 5.7 g/dL
  gamma-GTP: 1 IU/L
[…], time 14 day
  TERMINAL_BW: 305.8 g
  APTT: 20.1 s
  Bas: 0%
  Eos: 1%
  Fbg: 238.8 mg/dL
  Hb: 14.8 g/dL
  Ht: 42.2%
  Lym: 75.6%
  MCH: 20.6 pg
  MCHC: 35.2%
  MCV: 58.6 fL
  Mono: 2.4%
  Neu: 19.2%
  PT: 12 s
  Plat: 115.1 x10_4/uL
  RBC: 720.6 x10_4/ul
  Ret: 3.7%
  WBC: 101.2 x10_2/uL
  KIDNEY_L: 1.2 g
  KIDNEY_R: 1.2 g
  KIDNEY_TOTAL: 2.4 g
  LIVER: 13.5 g
  A/G: 1.4
  ALP: 885.8 IU/L
  ALT: 38.2 IU/L
  AST: 64.2 IU/L
  BUN: 16.2 mg/dL
  CRE: 0.5 mg/dL
  Ca: 10.6 mg/dL
  Cl: 103 meq/L
  DBIL: 0.088 mg/dL
  GLC: 205.2 mg/dL
  IP: 7.2 mg/dL
  K: 3.9 meq/L
  LDH: 177 IU/L
  Na: 141.2 meq/L
  PL: 140.8 mg/dL
  RALB: 3.5 g/dL
  TBIL: 0.2 mg/dL
  TC: 67.2 mg/dL
  TG: 124.8 mg/dL
  TP: 6 g/dL
  gamma-GTP: 1 IU/L
[…], time 28 day
  TERMINAL_BW: 385.4 g
  APTT: 20.9 s
  Bas: 0.4%
  Eos: 1.4%
  Fbg: 223.8 mg/dL
  Hb: 15.6 g/dL
  Ht: 43.7%
  Lym: 77.8%
  MCH: 20 pg
  MCHC: 35.7%
  MCV: 56.2 fL
  Mono: 2.6%
  Neu: 16.8%
  PT: 12.4 s
  Plat: 106.3 x10_4/uL
  RBC: 779.2 x10_4/ul
  Ret: 2%
  WBC: 91.9 x10_2/uL
  KIDNEY_L: 1.5 g
  KIDNEY_R: 1.4 g
  KIDNEY_TOTAL: 2.9 g
  LIVER: 15.9 g
  A/G: 1.3
  ALP: 677.6 IU/L
  ALT: 31.6 IU/L
  AST: 61.4 IU/L
  BUN: 17.2 mg/dL
  CRE: 0.5 mg/dL
  Ca: 10.4 mg/dL
  Cl: 103 meq/L
  DBIL: 0.092 mg/dL
  GLC: 214.6 mg/dL
  IP: 6.6 mg/dL
  K: 3.9 meq/L
  LDH: 126.8 IU/L
  Na: 140.8 meq/L
  PL: 132.8 mg/dL
  RALB: 3.4 g/dL
  TBIL: 0.1 mg/dL
  TC: 64.2 mg/dL
  TG: 85.8 mg/dL
  TP: 6.2 g/dL
  gamma-GTP: 0.8 IU/L

Reference: ChEMBL document CHEMBL3885861, “Open TG-GATES”
